One data set relates to E. coli (KCTC 1682). The experiment in a line: Strain reduction rate determination (shake flask method). Conditions: for Right After Inoculation (number of bacteria): 5 minutes after inoculation, 0.1 g powder or 2 ml stock solution; for After 24 hours (number of bacteria): 24 hours incubation with agitation; for Strain Reduction Rate: vs control after 24 hours. The format is cell-based. As to the method: (§1) The antimicrobial test was conducted by strain reduction rate determination (shake flask method). As the samples, 0.1 g of each of the compounds of Examples 9, 13, 15, and 18 to 23 was used in the form of powder, and in the case of Examples 28 to 31, 2 ml of their stock solution was used. The buffer solutions used in the antibacterial test were those prepared by dissolving each of 28.39 g of […] and 23.99 g of NaH2PO4 in 1000 ml of purified water, blending them in the volume of 72 ml and 28 ml respectively, adding 5 g of NaCl thereto, and then pouring purified water thereinto to adjust their total volume to 1000 ml. As the control, the same bacterial strains, to which no samples were added, were used. The samples were mixed with bacterial strain inocula (5.0×105), which were then incubated while agitating for 24 hours and then incubated on agar media. The reduction rate of strain number was determined by the following Equation 1. (Reduction Rate %)={(A−B)/A}×100 [Equation 1]
(§2) A: Number of Bacteria in Control after 24 Hours
(§3) B: Number of Bacteria in Sample after 24 Hours
(§4) In Table 6 above, “right after inoculation” refers to after 5 minutes from the time the bacterial strains were inoculated.

For another data set, the system named is S. aureus (KCTC 1621). The description is as above. The format is cell-based. Conditions: for Right After Inoculation (number of bacteria): 5 minutes after inoculation, 0.1 g powder or 2 ml stock solution; for After 24 hours (number of bacteria): 24 hours incubation with agitation; for Strain Reduction Rate: vs control after 24 hours. As to the method: as §1, §2, §3, §4

A short description of data set [1]: Light stability test (colour change over 3 months). It counts as physicochemical. As to conditions: for Discoloration: installed in the place where light was shut off. The text has this:
The antimicrobial monomers manufactured in Examples 9 and 10 and the antimicrobial acrylic copolymers manufactured in Examples 17 to 23 were used as samples. 3 g of each sample were respectively put in lucid glass test tubes, which were then placed under a direct ray of light. Also, according to the same method, the samples were collected in lucid glass test tubes which were then sealed with aluminum foil and installed in a place where indoor light was shut off.

For `C=C(C)C(=O)OCC(O)CN1CCN(c2cc3c(cc2F)c(=O)c(C(=O)O)cn3C2CC2)CC1` (centres unmarked) [Example 9, 1-cyclopropyl-6-fluoro-1,4-dihydro-7-[4-(2-hydroxy-6-methyl-4-oxa-5-oxo-6-heptenyl)-1-piperazinyl]-4-oxo-3-quinoline carboxylic acid], in the data set with E. coli (KCTC 1682), the “Right After Inoculation (number of bacteria)” value (from here on “Right After Inoculation”) is given as “not detected”, the “After 24 hours (number of bacteria)” value is listed as “not detected” and the “Strain Reduction Rate” value is recorded as 100%. Further, in the data set on S. aureus (KCTC 1621), the “Right After Inoculation” value is “not detected”, the “After 24 hours (number of bacteria)” value was “not detected” and the “Strain Reduction Rate” value is listed as 100%. Further, in data set [1] (Direct Ray of Light), the “Colour, Four Weeks Later” value is listed as “orange”; the “Colour, Initial” value is on record as “white”; the “Colour, Ten Weeks Later” value is listed as “brown”; the “Colour, Twelve Weeks Later” value was “brown”. For the same compound, the “Colour, Two Weeks Later” value in data set [1] (Direct Ray of Light) is given as “yellow”. In data set [1] (Light Shut Off), the “Colour, Eight Weeks Later” value is given as “white”; the “Colour, Four Weeks Later” value is recorded as “white”; the “Colour, Initial” value is recorded as “white”; the “Colour, Six Weeks Later” value was “white”. For the same compound, in data set [1] (Light Shut Off), the “Colour, Ten Weeks Later” value was “white”; the “Colour, Twelve Weeks Later” value is listed as “white”; the “Colour, Two Weeks Later” value is listed as “white”. In addition, the Discoloration result in data set [1] was “not discolored”.
As for `C=C(C)C(=O)N1CCN(c2cc3c(cc2F)c(=O)c(C(=O)O)cn3C2CC2)CC1` [Example 13, 1-cyclopropyl-6-fluoro-1,4-dihydro-7-[4-(2-methyl-1-oxo-2-propenyl)-1-piperazinyl]-4-oxo-3-quinoline carboxylic acid], in the data set with E. coli (KCTC 1682), the “Right After Inoculation” value is on record as “not detected”, the “After 24 hours (number of bacteria)” value is on record as “not detected” and the “Strain Reduction Rate” value was 100%. In addition, in the data set on S. aureus (KCTC 1621), the “Right After Inoculation” value is “not detected”, the “After 24 hours (number of bacteria)” value was “not detected” and the “Strain Reduction Rate” value stood at 100%.
Regarding `C=C(C)C(=O)OCC(O)CN1CCN(c2cc3c(cc2F)c(=O)c(C(=O)O)cn3CC)CC1` (centres unmarked) [Example 10, 1-ethyl-6-fluoro-1,4-dihydro-7-[4-(2-hydroxy-6-methyl-4-oxa-5-oxo-6-heptenyl)-1-piperazinyl]-4-oxo-3-quinoline carboxylic acid], in data set [1] (Direct Ray of Light), the “Colour, Four Weeks Later” value is recorded as “orange”; the “Colour, Initial” value is given as “white”; the “Colour, Ten Weeks Later” value is “brown”; the “Colour, Twelve Weeks Later” value is listed as “brown”. For the same compound, the “Colour, Two Weeks Later” value in data set [1] (Direct Ray of Light) is on record as “yellow”. Also, in data set [1] (Light Shut Off), the “Colour, Eight Weeks Later” value is listed as “white”; the “Colour, Four Weeks Later” value is recorded as “white”; the “Colour, Initial” value was “white”; the “Colour, Six Weeks Later” value is “white”. For the same compound, in data set [1] (Light Shut Off), the “Colour, Ten Weeks Later” value is “white”; the “Colour, Twelve Weeks Later” value was “white”; the “Colour, Two Weeks Later” value is on record as “white”. In addition, the Discoloration entry in data set [1] is “not discolored”.

Values taken from patent US7777033B2, “Monomer with anti-microbial character, polymer using the same, and manufacturing method thereof” (Micro Science Tech Co., Ltd., priority 2005, dated 2010).
